Test results: US20240101528A1, “SUBSTITUTED PYRAZOLO PIPERIDINE CARBOXYLIC ACIDS” (BAYER AKTIENGESELLSCHAFT, priority 2020, published 2024)
Counter-ions that a name gives are not always drawn.

Biological target: T1, recombinant guanylate cyclase reporter cell line (Rattus norvegicus, UniProt P20595)
T1 construct: expressed in transfected cells
T1 sequence (P20595 1-619): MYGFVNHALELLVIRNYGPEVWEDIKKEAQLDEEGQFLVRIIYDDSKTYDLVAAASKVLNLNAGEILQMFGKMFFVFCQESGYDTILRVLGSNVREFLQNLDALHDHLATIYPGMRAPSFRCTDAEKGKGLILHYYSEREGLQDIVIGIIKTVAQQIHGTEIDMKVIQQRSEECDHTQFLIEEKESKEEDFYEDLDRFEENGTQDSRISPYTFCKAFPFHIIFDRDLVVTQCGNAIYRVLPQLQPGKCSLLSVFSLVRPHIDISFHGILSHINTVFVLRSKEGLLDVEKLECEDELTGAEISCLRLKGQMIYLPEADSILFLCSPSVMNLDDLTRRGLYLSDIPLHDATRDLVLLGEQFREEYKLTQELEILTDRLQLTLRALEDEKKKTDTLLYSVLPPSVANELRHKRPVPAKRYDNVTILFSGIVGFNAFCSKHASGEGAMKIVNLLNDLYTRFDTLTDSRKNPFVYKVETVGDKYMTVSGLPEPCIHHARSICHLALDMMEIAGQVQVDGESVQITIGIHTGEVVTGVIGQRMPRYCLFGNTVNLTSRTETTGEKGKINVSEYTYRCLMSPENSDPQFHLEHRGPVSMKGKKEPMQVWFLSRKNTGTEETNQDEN
T1 sequence (P19686 1-690 partner): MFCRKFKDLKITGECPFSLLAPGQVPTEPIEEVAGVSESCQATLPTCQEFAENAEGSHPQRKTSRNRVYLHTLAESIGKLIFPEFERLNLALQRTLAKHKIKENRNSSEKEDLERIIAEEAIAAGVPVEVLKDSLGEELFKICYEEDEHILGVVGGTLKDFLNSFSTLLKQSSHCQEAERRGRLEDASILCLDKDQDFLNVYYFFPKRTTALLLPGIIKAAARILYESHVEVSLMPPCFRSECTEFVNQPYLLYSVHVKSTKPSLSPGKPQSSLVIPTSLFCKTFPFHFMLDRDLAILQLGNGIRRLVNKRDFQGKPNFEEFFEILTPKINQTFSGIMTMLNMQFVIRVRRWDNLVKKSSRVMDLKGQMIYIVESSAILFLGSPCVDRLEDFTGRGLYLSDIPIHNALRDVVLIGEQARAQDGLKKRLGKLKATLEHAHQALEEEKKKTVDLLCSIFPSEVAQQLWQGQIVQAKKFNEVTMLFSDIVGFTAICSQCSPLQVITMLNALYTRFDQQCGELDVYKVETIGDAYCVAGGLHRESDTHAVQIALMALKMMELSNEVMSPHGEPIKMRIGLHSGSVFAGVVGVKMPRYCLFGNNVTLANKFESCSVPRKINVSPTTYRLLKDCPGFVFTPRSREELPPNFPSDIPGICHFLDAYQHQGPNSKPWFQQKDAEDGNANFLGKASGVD
Assay: Effect on a recombinant guanylate cyclase reporter cell line
Format: cell-based
Conditions: for EC50: half maximal effective concentration; for MEC: minimum effective concentration
Description: B-1. Effect on a Recombinant Guanylate Cyclase Reporter Cell Line
The cellular activity of the compounds according to the invention was determined using a recombinant guanylate cyclase reporter cell line, as described in F. Wunder et al., Anal. Biochem. 339, 104-112 (2005).

| EC50 [nM] | MEC [nM] | SMILES |
| --- | --- | --- |
| 89 | 3.0 | CC(C)(C)CN1CCN(c2ccc(-c3ccc(Cl)cc3N3CCCC(n4ncc(C(=O)O)c4C(F)F)C3)cc2)CC1 (single isomer, unassigned; enantiomer 2) [Example 13, 1-[(1-{4-Chloro-4′-[4-(2,2-dimethylpropyl)piperazin-1-yl][biphenyl]-2-yl}piperidin-3-yl]-5-(difluoromethyl)-1H-pyrazole-4-carboxylic acid hydrochloride (Enantiomer 2)] |
| 42.5 | 3.0 | O=C(O)c1cnn(C2CCCN(c3cc(Cl)ccc3-c3ccc(N4CCCC4)cc3)C2)c1C(F)F (single isomer, unassigned; enantiomer 2) [Example 45, 1-{1-[4-Chloro-4′-(pyrrolidin-1-yl)[biphenyl]-2-yl]piperidin-3-yl}-5-(difluoromethyl)-1H-pyrazole-4-carboxylic acid (Enantiomer 2)] |
| 1.5 | 1.0 | CCC(=O)N1CCC(c2ccc(-c3ccc(Cl)cc3N3CCCC(n4ncc(C(=O)O)c4C(F)F)C3)cc2)CC1 (single isomer, unassigned; enantiomer 2) [Example 56, 1-{1-[4-Chloro-4′-(1-propanoylpiperidin-4-yl)[biphenyl]-2-yl]piperidin-3-yl}-5-(difluoromethyl)-1H-pyrazole-4-carboxylic acid hydrochloride (Enantiomer 2)] |
| 18 | 3.0 | NC(=O)CCN1CCN(c2ccc(-c3ccc(Cl)cc3N3CCCC(n4ncc(C(=O)O)c4C(F)F)C3)cc2)CC1 (single isomer, unassigned; enantiomer 2) [Example 47, 1-(1-{4′-[4-(3-Amino-3-oxopropyl)piperazin-1-yl]-4-chloro[biphenyl]-2-yl}piperidin-3-yl)-5-(difluoromethyl)-1H-pyrazole-4-carboxylic acid (Enantiomer 2)] |
| 10.2 | 1.0 | O=C(O)c1cnn(C2CCCN(c3cc(Cl)ccc3-c3ccc(N4CCN(CC56CC(F)(C5)C6)CC4)cc3)C2)c1C(F)F (single isomer, unassigned; enantiomer 2) [Example 17, 1-[1-(4-Chloro-4′-{4-[(3-fluorobicyclo[1.1.1]pentan-1-yl)methyl]piperazin-1-yl}[biphenyl]-2-yl)piperidin-3-yl]-5-(difluoromethyl)-1H-pyrazole-4-carboxylic acid hydrochloride (Enantiomer 2)] |
| 1.8 | 0.3 | CC(F)(F)CN1CCN(c2ccc(-c3ccc(Cl)cc3N3CCCC(n4ncc(C(=O)O)c4C(F)F)C3)cc2)CC1 (single isomer, unassigned; enantiomer 1) [Example 24, 1-(1-{4-Chloro-4′-[4-(2,2-difluoropropyl)piperazin-1-yl][biphenyl]-2-yl}piperidin-3-yl)-5-(difluoromethyl)-1H-pyrazole-4-carboxylic acid hydrochloride (Enantiomer 1)] |
| 18 | 3.0 | O=C(O)c1cnn(C2CCCN(c3cc(Cl)ccc3-c3cnc(N4CCN(CC5CC5)CC4)nc3)C2)c1C(F)F (single isomer, unassigned; enantiomer 2) [Example 72, 1-[1-(5-Chloro-2-{2-[4-(cyclopropylmethyl)piperazin-1-yl]pyrimidin-5-yl}phenyl)piperidin-3-yl]-5-(difluoromethyl)-1H-pyrazole-4-carboxylic acid hydrochloride (Enantiomer 2)] |
| 4.1 | 0.3 | O=C(O)c1cnn(C2CCCN(c3cc(Cl)ccc3-c3ccc(N4CCN(CC5CC5F)CC4)cc3)C2)c1C(F)F (single isomer, unassigned; diastereomer 3) [Example 33, 1-[1-[5-Chloro-2-[4-[4-[(trans-2-fluorocyclopropyl)methyl]piperazin-1-yl]phenyl]phenyl]-3-piperidyl]-5-(difluoromethyl)pyrazole-4-carboxylic acid hydrochloride (Diastereomer 3)] |
| 11.3 | 2.0 | O=C(O)c1cnn(C2CCCN(c3cc(Cl)ccc3-c3ccc(N4CCN(C(=O)[C@H]5C[C@H]5F)CC4)cc3)C2)c1C(F)F (single isomer, unassigned; stereoisomer 2) [Example 35] |
| < 1 | <0.3 | O=C(O)c1cnn(C2CCCN(c3cc(Cl)ccc3-c3ccc(N4CCN(CCC(F)(F)F)CC4)nc3)C2)c1C(F)F (single isomer, unassigned; enantiomer 1) [Example 66, 1-[1-(5-Chloro-2-{6-[4-(3,3,3-trifluoropropyl)piperazin-1-yl]pyridin-3-yl}phenyl)piperidin-3-yl]-5-(difluoromethyl)-1H-pyrazole-4-carboxylic acid hydrochloride (Enantiomer 1)] |
| 61.5 | 10.0 | CC(C)(C)CN1CCN(c2ccc(-c3ccc(Cl)cc3N3CCCC(n4ncc(C(=O)O)c4C(F)F)C3)cc2)CC1 (single isomer, unassigned; enantiomer 1) [Example 12, 1-[(1-{4-Chloro-4′-[4-(2,2-dimethylpropyl)piperazin-1-yl][biphenyl]-2-yl}piperidin-3-yl]-5-(difluoromethyl)-1H-pyrazole-4-carboxylic acid hydrochloride (Enantiomer 1)] |
| 68 | 30.0 | CC(=O)N1CCN(c2ccc(-c3ccc(Cl)cc3N3CCCC(n4ncc(C(=O)O)c4C(F)F)C3)cn2)CC1 (single isomer, unassigned; enantiomer 2) [Example 68, 1-(1-{2-[6-(4-Acetylpiperazin-1-yl)pyridin-3-yl]-5-chlorophenyl}piperidin-3-yl)-5-(difluoromethyl)-1H-pyrazole-4-carboxylic acid hydrochloride (Enantiomer 2)] |
| 14.5 | 1.0 | O=C(O)c1cnn(C2CCCN(c3cc(Cl)ccc3-c3ccc(N4CCN(CC5CC5C(F)(F)F)CC4)cc3)C2)c1C(F)F (mixture of isomers) [Example 39, 1-{1-[4-Chloro-4′-(4-{[cis-2-(trifluoromethyl)cyclopropyl]methyl}piperazin-1-yl) [biphenyl]-2-yl]piperidin-3-yl}-5-(difluoromethyl)-1H-pyrazole-4-carboxylic acid hydrochloride (Diastereomeric Mixture 2)] |
| 7.5 | 3.0 | CC(C)C(=O)N1CCN(c2ccc(-c3ccc(Cl)cc3N3CCCC(n4ncc(C(=O)O)c4C(F)F)C3)cc2)CC1 (single isomer, unassigned; enantiomer 2) [Example 48, 1-{1-[4-Chloro-4′-(4-isobutyrylpiperazin-1-yl)[biphenyl]-2-yl]piperidin-3-yl}-5-(difluoromethyl)-1H-pyrazole-4-carboxylic acid (Enantiomer 2)] |
| 13.9 | 3.0 | CC(C)(F)C(=O)N1CCN(c2ccc(-c3ccc(Cl)cc3N3CCCC(n4ncc(C(=O)O)c4C(F)F)C3)cc2)CC1 (single isomer, unassigned; enantiomer 2) [Example 49, 1-(1-{4-Chloro-4′-[4-(2-fluoro-2-methylpropanoyl)piperazin-1-yl][biphenyl]-2-yl}piperidin-3-yl)-5-(difluoromethyl)-1H-pyrazole-4-carboxylic acid (Enantiomer 2)] |
| 9.2 | 0.8 | O=C(O)c1cnn(C2CCCN(c3cc(Cl)ccc3-c3ccc(N4CCN(CC5CC5)CC4)cc3)C2)c1C(F)F (single isomer, unassigned; enantiomer 1) [Example 10, 1-[1-{4-Chloro-4′-[4-(cyclopropylmethyl)piperazin-1-yl][1,1′-biphenyl]-2-yl}piperidin-3-yl]-5-(difluoromethyl)-1H-pyrazole-4-carboxylic acid hydrochloride (Enantiomer 1)] |
